Values after ≈ are worked out from the molar mass of the structure shown. Like-named read-outs stand apart in the source and are kept apart here. Positions of bridges follow the written chain, without caps; N, C: chain ends. Non-standard residues stand in square brackets, D forms with d. Residues, ends and D or L forms follow the SMILES beside them. *: point of attachment. Ileψ(thiazoline)Cys = CC[C@H](C)[C@H](N)C1=N[C@H](C(=O)*)CS1; dOrn = NCCC[C@@H](N)C(=O)O

The source of these data is patent US20070042448A1, “Use of enzymes from Helicobacter pylori as therapeutical targets” (priority 2005, published 2007).

The subject of assay [1] is H. pylori strain 26695. Kind of assay: Minimum inhibitory concentration (MIC) on plates, parental strain. In kind it is cell-based, Helicobacter pylori. An excerpt:
(§1) Minimal Inhibitory Concentration (MIC). To determine the MIC for amoxicillin, suspensions of H. pylori estimated to contain […] bacteria/ml (OD600 nm of 0.1) were serially diluted and grown on plates containing various concentrations of amoxicillin. The MIC was defined as the amoxicillin concentration leading to a decrease of 3 log of CFU/ml as compared to growth without amoxicillin.
(§2) To determine the MIC of different antibiotics, suspensions of H. pylori estimated to contain 10^8 bacteria/ml (OD600 nm of 0.1) were serially diluted and grown on plates containing various concentrations of amoxicillin. The MIC was defined as the minimal concentration leading to a decrease of 3 log of CFU/ml as compared to growth without antibiotic. Minimum bactericidal concentration (MBC) for amoxicillin was done as follow. Bacteria were grown in increasing concentrations of amoxicillin in liquid culture and OD600 nm was monitored. After 18 hours, CFU/ml counts were determined for each amoxicillin concentration. MBC was defined as the concentration leading to a 3 log decrease of CFU/ml as compared as growth without amoxicillin.

Assay [2] relates to H. pylori 26695 amiA mutant. Nature of the assay: Minimum inhibitory concentration (MIC) on plates, amiA mutant. In kind it is cell-based, Helicobacter pylori.
From the text: as §1, §2

In assay [3] the target is T1, human Nod2 (Homo sapiens, UniProt Q9HC29).
T1 construct: host or cells: HEK293T
T1 sequence (Q9HC29 whole entry): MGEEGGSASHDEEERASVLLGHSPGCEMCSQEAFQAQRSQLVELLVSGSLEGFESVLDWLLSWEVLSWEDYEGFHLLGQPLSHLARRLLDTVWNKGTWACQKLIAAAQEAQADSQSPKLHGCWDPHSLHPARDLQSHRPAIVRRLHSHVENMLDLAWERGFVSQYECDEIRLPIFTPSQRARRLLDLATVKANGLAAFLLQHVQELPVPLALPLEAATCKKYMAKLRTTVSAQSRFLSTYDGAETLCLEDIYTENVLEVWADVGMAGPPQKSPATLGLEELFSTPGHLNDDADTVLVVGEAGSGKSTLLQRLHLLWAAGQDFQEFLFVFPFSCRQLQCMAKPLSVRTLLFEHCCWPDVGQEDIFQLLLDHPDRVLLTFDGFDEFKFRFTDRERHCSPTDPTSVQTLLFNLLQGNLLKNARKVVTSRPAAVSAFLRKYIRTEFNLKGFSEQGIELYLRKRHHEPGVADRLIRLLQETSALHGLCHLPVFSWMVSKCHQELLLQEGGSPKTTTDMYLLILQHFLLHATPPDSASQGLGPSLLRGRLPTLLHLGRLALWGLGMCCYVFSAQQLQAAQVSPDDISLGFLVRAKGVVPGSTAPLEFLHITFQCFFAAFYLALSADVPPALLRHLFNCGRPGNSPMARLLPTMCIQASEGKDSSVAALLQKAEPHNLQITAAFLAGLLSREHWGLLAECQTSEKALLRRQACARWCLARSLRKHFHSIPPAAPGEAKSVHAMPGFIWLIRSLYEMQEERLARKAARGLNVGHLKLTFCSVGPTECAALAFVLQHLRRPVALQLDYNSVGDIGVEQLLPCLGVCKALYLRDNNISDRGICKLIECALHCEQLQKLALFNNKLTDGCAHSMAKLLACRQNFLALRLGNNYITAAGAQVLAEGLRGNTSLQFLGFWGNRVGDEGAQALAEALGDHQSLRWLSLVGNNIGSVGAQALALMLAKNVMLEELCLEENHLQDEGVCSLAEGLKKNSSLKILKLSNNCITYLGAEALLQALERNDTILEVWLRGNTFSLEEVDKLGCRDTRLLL
Nature of the assay: Nod2-dependent NF-κB luciferase activation in transfected HEK293T cells. In kind it is cell-based. The settings on record: HEK293T cells transfected with hNod2 and luciferase reporter; FIG. 4D. An excerpt:
Expression Plasmids, Transient Transfections and NF-κB Activation Assays. The expression plasmid for FLAG-tagged hNod1 was from Gabriel Nuñez (University of Michigan Medical School, Ann Arbor, Mich.) and has been described previously. The expression plasmid for hNod2 was from Gilles Thomas (Foundation Jean Dausset/CEPH, Paris, France). HEK293T cells were used for transfections as described previously. Synergistic activation of NF-κB by PGs, muramyl peptides, and related compounds in cells over-expressing Nod1 or Nod2 was studied as described by Inohara et al.. Briefly, HEK293T cells were transfected overnight with 10 ng of hNod1 or 30 ng of hNod2 plus 75 ng of Ig luciferase reporter plasmid. PG samples (0.1 μg/ml) were digested with 0.25 μg/μl mutanolysin. At the same time, 0.3 μg of PG preparations or 10 pmol of muramyl-peptides were added to the cell culture medium, and synergistic NF-κB-dependent luciferase activation was measured after 24 h of co-incubation. NF-κB-dependent luciferase assays were performed in duplicate, and data reported represent at least three independent experiments. Data was standardized with positive controls: M-dipeptide for hNod2 and M-tripeptide for hNod1. hNod1 and hNod2 were activated with H. pylori PG (0.3 μg/ml) digested with M1 or Slt70 as previously described.
(A reporter such as luciferase makes a cellular process visible.)

For assay [4], the system named is H. pylori 26695 amiA− complemented. Nature of the assay: Minimum bactericidal concentration (MBC) in liquid culture, complemented amiA mutant. In kind it is cell-based, Helicobacter pylori. The method, then:
as §2

Assay [5] concerns H. pylori strain 26695. Kind of assay: Minimum bactericidal concentration (MBC) in liquid culture, parental strain. In kind it is cell-based, Helicobacter pylori. As to the method: as §2
Assay [6] concerns H. pylori 26695 amiA mutant. Nature of the assay: Morphological transition into coccoid forms after amoxicillin (scanning electron microscopy), amiA mutant. In kind it is cell-based, Helicobacter pylori. The method, then:
(§3) Some stress signals, including amoxicillin treatment, can induce the morphological transition into coccoid forms. The inventors investigated the response of the ami A mutant to amoxicillin. First the inventors determined the MIC of amoxicillin: it was identical for the ami A mutant and the parental strain 26695 (0.06 μg/ml). After overnight culture, 10 μg/ml of amoxicillin was added to the media and after three hours of antibiotic treatment bacteria were observed by scanning electron microscopy. […] Thus, AmiA is required both for PG modifications and morphological transition.
(§4) For scanning electron microscopy (SEM), samples were washed in PBS, prefixed in 2.5% glutaraldehyde in 0.1M cacodylate buffer for 30 minutes and then rinsed in 0.2M cacodylate buffer. After post-fixation in 1% osmium tetraoxide (in 0.2M cacodylate buffer), bacteria were dehydrated in a series of ethanol concentrations. Specimens were critical-point dried using carbon dioxide, then coated with gold and examined with a JEOL JSM-6700F SEM.

Assay [7] has as its system H. pylori strain 26695. Kind of assay: Morphological transition into coccoid forms after amoxicillin (scanning electron microscopy), parental strain. In kind it is cell-based, Helicobacter pylori. The settings on record: 3-4 h exposure to amoxicillin (10 μg/ml) after 18 h of growth without antibiotic. The method, then:
as §3, §4

In assay [8] the test system is H. pylori 26695 amiA mutant. Kind of assay: Minimum bactericidal concentration (MBC) in liquid culture, amiA mutant. In kind it is cell-based, Helicobacter pylori. The following applies: 18 hours, maximum concentration tested 32 μg/ml. The method, then: as §2
Assay [9] has as its system H. pylori 26695 amiA− complemented. Kind of assay: Minimum inhibitory concentration (MIC) on plates, complemented amiA mutant. In kind it is cell-based. The following applies: Helicobacter pylori, read-out: MIC (μg/ml of amoxicillin). The method, then: as §2
The mark [10] stands for this setting: Helicobacter pylori, other antibiotics, read-out: MIC.

With `CCn1cc(C(=O)O)c(=O)c2ccc(C)nc21` [Nalidixic acid], the MIC in [1] (setting [10]) and in assay [2] (Helicobacter pylori) was 30 µg/mL (≈ 129 µM) throughout.
For `CC[C@H](C)[C@H](N)C1=N[C@H](C(=O)N[C@@H](CC(C)C)C(=O)N[C@H](CCC(=O)O)C(=O)N[C@H](C(=O)N[C@H]2CCCCNC(=O)[C@H](CC(N)=O)NC(=O)[C@@H](CC(=O)O)NC(=O)[C@H](Cc3cnc[nH]3)NC(=O)[C@@H](Cc3ccccc3)NC(=O)[C@H]([C@@H](C)CC)NC(=O)[C@@H](CCCN)NC2=O)[C@@H](C)CC)CS1` [Bacitracin] ({Ileψ(thiazoline)Cys}-L[dE]IK[dOrn]I[dF]H[dD]N; lactam 4-C), the MIC in assay [1] (setting [10]) and in assay [2] (Helicobacter pylori) was > 1000 µg/mL in each case.
As to `[H]/N=C(/N)N[C@H]1[C@H](O)[C@@H](O)[C@H](O[C@@H]2O[C@@H](C)[C@](O)(C=O)[C@H]2O[C@@H]2O[C@@H](CO)[C@H](O)[C@@H](O)[C@@H]2NC)[C@@H](N/C(N)=N\[H])[C@@H]1O` [Streptomycin], the MIC in assay [1] (setting [10]) and in [2] (Helicobacter pylori) was 1 µg/mL (≈ 1.72 µM) in each case.
For `CC(=O)NC1C(OC2C(CO)OC(O)C(NC(C)=O)C2OC(C)C(=O)NC(C)C(=O)NC(CCC(=O)O)C(=O)O)OC(CO)C(O)C1O` [GM-dipeptide, N-acetyl-D-glucosminyl-β(1,4)-N-acetylmuramyl-L-Ala-D-Glu], the “Nod2-dependent activation of NF-κB” value in assay [3] was “detected via Nod2 in a dose dependent manner”.
Take `Cc1ncc([N+](=O)[O-])n1CCO` [Metronidazole]: the MIC in assay [1] (setting [10]) and in assay [2] (Helicobacter pylori) was 1 µg/mL (≈ 5.84 µM) in each case.
On to `CC1(C)S[C@@H]2[C@H](NC(=O)[C@H](N)c3ccc(O)cc3)C(=O)N2[C@H]1C(=O)O` [amoxicillin], for which the “Ratio MBC/MIC” value in [4] is on record as 2; in [5], 1. Further, the “MCB (μg/ml of amoxicillin)” value in assay [4] (liquid culture, 18 hours) is 0.250 µg/mL; in [5] (liquid culture, 18 hours, 3 log decrease of CFU/ml), 0.06 µg/mL; in [8], >32 µg/mL. In addition, in assay [6] (10 μg/ml amoxicillin, three hours, after overnight culture, scanning electron microscopy), the “Morphology of amiA mutant after amoxicillin” value is “formed chains of spherical bacteria”. Moreover, the “% of coccoids (includes U and donut forms)” value in assay [6] (26695 amiA−, 3-4 h exposure to amoxicillin (10 μg/ml) after 18 h of growth without antibiotic) worked out at 32.60%; in assay [7], 56.64%. Further, the “Coccoid formation of amiA mutant after amoxicillin” value in [6] (exposure to 100 times its MIC) was “still induced coccoid formation”. Besides, the MIC came to 0.06 µg/mL in assay [1] (Helicobacter pylori, 3 log decrease of CFU/ml, read-out: MIC (μg/ml of amoxicillin)); 0.06 µg/mL in assay [2] (Helicobacter pylori, read-out: MIC (μg/ml of amoxicillin)); 0.125 µg/mL in assay [9].
For the compound `COc1cc(Cc2cnc(N)nc2N)cc(OC)c1OC` [Trimethroprime], the “MIC” value in assay [1] (other antibiotics) was >100 µg/mL; in assay [2] (26695 amiA mutant, other antibiotics), >100 µg/mL.
On to `CN[C@H](CC(C)C)C(=O)N[C@H]1C(=O)N[C@@H](CC(N)=O)C(=O)N[C@H]2C(=O)N[C@H]3C(=O)N[C@H](C(=O)N[C@H](C(=O)O)c4cc(O)cc(O)c4-c4cc3ccc4O)[C@H](O)c3ccc(c(Cl)c3)Oc3cc2cc(c3O[C@@H]2O[C@H](CO)[C@@H](O)[C@H](O)[C@H]2O[C@H]2C[C@](C)(N)[C@H](O)[C@H](C)O2)Oc2ccc(cc2Cl)[C@H]1O` [Vancomycin], for which the MIC in assay [1] (setting [10]) and in assay [2] (Helicobacter pylori) was > 1000 µg/mL throughout.
